Data on nine compounds can be found in patent US7256006B2, “Method for determining the influence of a test substance on the heart activity of a vertebrate” (Multi Channel Systems MCS GmbH, priority 2003, dated 2007).

Counter-ions that a name gives are not always drawn. Like-named read-outs stand apart in the source and are kept apart here.

The test system of series [1] is ventricular myocytes from chicken embryos. The series can be described thus: extracellular MEA field potential (FPdur) measurement on spontaneously beating heart cells. Format: cell-based. The settings on record: submicromolecular concentrations.
The conditions of series [2]: literature reference; cited from earlier work.
Series [3] deals with ventricular myocytes from chicken embryos. In words: extracellular MEA field potential (FPdur) measurement on spontaneously beating heart cells. It is filed as cell-based. As for the experimental part:
The heart muscle cells were obtained by trypsin digestion of the isolated ventricle of chicken embryos (10-12 days after fertilization). The heart was freed of blood vessels and atria. The cells were cultured in MEM medium supplemented with 10% fetal calf serum (FCS). One to two days before the measurement, the medium was replaced by standard Tyrode solution.
The standard Tyrode solution was then replaced by a Tyrode solution with 5 μM of a test substance and the change in FPdur was determined. Thereafter, the concentration of the test substance was increased in logarithmic steps. A measurement was now taken every 10 minutes.
In measurements with quinidine, 0.5% DMSO was added to the cell Tyrode since quinidine is not water-soluble. The control experiment was also carried out with DMSO here.
In these qualitative evaluations, i.e. comparison of data from the respective control experiment and the data derived from addition of the QT-modifying substance, possible changes in the heart rate were taken into account.
For the normalized case, the FPdur value was divided by the square root of the time span (in seconds) between two action potentials.

Take `Cc1cccc(CCN2CCC(C(=O)c3ccc(NS(C)(=O)=O)cc3)CC2)n1.Cl.Cl` [E4031]: the “prolongation of the ventricular action potential” value in series [1] is given as “over 90%”.
Turning to `C=C[C@H]1C[N@@]2CC[C@H]1C[C@@H]2[C@@H](O)c1ccnc2ccc(OC)cc12` [quinidine], the “effect on QT” value in series [2] is given as “QT-prolonging effect”. Further, in series [3] (FIG. 2B, indicated quinidine concentrations for 200 seconds), the “QT prolongation (increase in FPdur)” value is on record as “QT prolongation increasing with concentration”. Besides, the “concentrations at which QT prolongations are shown in vitro in the MEA system” value in series [3] (chicken, 10 min) is 2000 to 7000 nM. Moreover, in series [3] (summary of substances tested by the inventors), the “effect on the QT interval” value is recorded as “prolongating effect”.
With `CC(C)(C(=O)O)c1ccc(C(O)CCCN2CCC(C(O)(c3ccccc3)c3ccccc3)CC2)cc1` (centres unmarked) [fexofenafine], the “effect on the QT interval” value in series [3] is “prolongating effect”.
The same measure, in the same setting: under `COc1cc(N)c(Cl)cc1C(=O)NC1CCN(CCCOc2ccc(F)cc2)CC1OC` (centres unmarked) [cisapride] stands “prolongating effect”.
As for `CC(C)NCC(O)c1ccc(NS(C)(=O)=O)cc1` (centres unmarked) [sotalol, N-[4-[1-hydroxy-2-(isopropylamino)ethyl]phenyl]methanesulfonamidehydrochloride], in series [3], the “effect on the QT interval” value is on record as “prolongating effect” and the “prolongation of the action potential” value is reported as “about double”.
Regarding `CC1(C)Oc2ccc(S(=O)(=O)c3ccccc3)cc2[C@@H](N2CCCC2=O)[C@@H]1O` [rilmakalim], the “prolongation of the field potential” value in series [3] is on record as “did not prolong the field potential”. The beating frequency entry in series [3] (substance with so far unknown effect on QT interval) is reported as “reduced the frequency”.
Regarding `COc1cc2c(cc1OC)CC(=O)N(CCCN(C)C[C@H]1Cc3cc(OC)c(OC)cc31)CC2` [ivabradine], the “effect on the QT interval” value in series [3] is given as “No QT prolongation”.
Turning to `CC(C)(C)c1ccc(C(O)CCCN2CCC(C(O)(c3ccccc3)c3ccccc3)CC2)cc1` (centres unmarked) [terfenadin], in series [3], the “effect on the QT interval” value is “prolongating effect”.
Same read-out and setting: the value for `COc1ccc(CCN2CCC(Nc3nc4ccccc4n3Cc3ccc(F)cc3)CC2)cc1` [astemizol] was “prolongating effect”.
